The source of these data is patent publication US6586206B1, “Methods for making recombinant proteins using apoptosis inhibitors” (priority 1999, dated 2003).

For one assay, the system named is NSO myeloma cells. The settings on record: overexpression in NSO myeloma cells; Murray et al. 1996; cited from earlier work.
A further assay deals with different cell lines. To be noted: under cell-culture conditions; other investigators; cited from earlier work.
Another assay deals with caspase-3. Nature of the assay: caspase-3 activity in CHO culture treated with z-VAD-fmk. The assay is classed as cell-based, Chinese hamster. To be noted: z-VAD-fmk added to the culture at 100 uM, from 48 hours, every 24 hours. The method, then:
(§1) FIGS. 9-10 show assay results of CHO cells seeded in 60 mm dishes and exposed to caspase inhibitor, z-VAD-fmk (added to the cell culture at 100 micromolar concentration, 48 hours after seeding). The z-VAD-fmk inhibitor was added to the culture every 24 hours thereafter. Samples were taken every day and analyzed for caspase-3 activity (FIG. 9) and the % viable cells (FIG. 10).
(§2) CHO (dhfr+) cells grown in suspension were seeded at 1 million cells/ml in 60 mm tissue culture dishes. The cell culture media was a serum-free DMEM/Ham F-12 based medium containing recombinant human insulin and trace elements. Viability of the culture on day 0 was 96%. Two plates were analyzed each day for viability by Trypan Blue exclusion and by annexin/PI binding (Clontech) and for viable cell density. The experiment was carried out for 10 days. A chemical inhibitor of caspases, z-VAD-fmk (Enzyme Systems Products) was dissolved in DMSO to make a 100 mM (1000×) stock and 4 ul was added to a 60 mm dish containing 4 ml of culture. The inhibitor was added 48 hours after the start of the experiment (prior to the onset of apoptosis) and a new aliquot of the z-VAD-fmk inhibitor was added every 24 hours. Controls were cultures without any addition and cultures with the addition of DMSO only.

The test system of assay [1] is CHO (dhfr+) cells. Nature of the assay: viability/apoptosis of CHO culture in 60 mm dishes with z-VAD-fmk (Trypan Blue exclusion, annexin/PI). The assay is classed as cell-based, Chinese hamster. As to the method: as §1, §2
Assay [2] relates to serum-free culture of CHO cells. The settings on record: Goswami et al. 1999; cited from earlier work.
Assay [3] deals with CHO (dhfr+) cells. The assay can be described thus: effect of p35 expression on viability in 2 liter bioreactors. The assay is classed as cell-based, Chinese hamster. The settings on record: p35 expressed in CHO cells vs cpc vector control, 2 liter bioreactor.

Residues, ends and D or L forms follow the SMILES beside them. *: point of attachment. Cbz = O=C(OCc1ccccc1)*; CH2F = FC*

As to “bcl-2: anti-apoptotic gene overexpressed in cultured cells”, the “decline phase characteristics of the cultured cells” value in the assay with NSO myeloma cells is “failed to affect the decline phase characteristics”. The “prevention of cell death” value in the assay on different cell lines is recorded as “can be effective in preventing different cell lines from death”.

For `COC(=O)C[C@H](NC(=O)[C@H](C)NC(=O)[C@@H](NC(=O)OCc1ccccc1)C(C)C)C(=O)CF` [z-VAD-fmk] (Cbz-Val-Ala-Asp(OMe)-CH2F), the caspase-3 activity result with caspase-3 was “inhibition of caspase-3 activity”. For the same molecule, in the assay with CHO (dhfr+) cells [1] (added at a concentration of about 100 micromolar), the “apoptosis in cell cultures” value was “can inhibit apoptosis”. Also, the cell viability result with CHO (dhfr+) cells [1] (z-VAD-fmk added to the culture at 100 uM, from 48 hours, every 24 hours) was “prolongation of cell viability”. The “life of the culture” value in assay [2] is recorded as “unable to substantially extend the life”.

B1: baculovirus p35: apoptosis inhibitor, baculovirus p35, expressed in CHO cells from p35/CPC construct (protein, UniProt P08160 1-299, looked up)
Early 35 kDa protein: MCVIFPVEIDVSQTIIRDCQVDKQTRELVYINKIMNTQLTKPVLMMFNISGPIRSVTRKNNNLRDRIKSKVDEQFDQLERDYSDQMDGFHDSIKYFKDEHYSVSCQNGSVLKSKFAKILKSHDYTDKKSIEAYEKYCLPKLVDERNDYYVAVCVLKPGFENGSNQVLSFEYNPIGNKVIVPFAHEINDTGLYEYDVVAYVDSVQFDGEQFEEFVQSLILPSSFKNSEKVLYYNEASKNKSMIYKALEFTTESSWGKSEKYNWKIFCNGFIYDKKSKVLYVKLHNVTSALNKNVILNTIK
With B1, the “viability in the bioreactor” value in the assay with CHO (dhfr+) cells [3] is reported as “prolongation of viability”.
